Assay results as given in patent US4971990A, “Phenoxyethylamine derivatives, for preparing the same and composition for exhibiting excellent α1 -blocking activity containing the same” (Hokuriku Pharmaceutical Co., Ltd., priority 1988, dated 1990).
Where a name gives a salt, the structure may show the parent alone. Read-outs that look alike come from different tables or passages of the source.

Assays:
dopamine D2-receptor = biological target: T1, dopamine D2-receptor (Rattus norvegicus, UniProt P61169); assay: Dopamine D2-receptor radioligand-binding assay (3H-spiperone, brain striatum membranes); set-up: species or system rat (male Wistar)
T1 construct: The homogenates were centrifuged and synaptic membrane fractions were obtained; from tissue; host or cells: brain striatum, synaptic membrane fraction, male Wistar rat
Experimental: Dopamine D2 -receptor radioligand-binding assay
Method: These experiments were done according to the method of Coward, D et al. (Naunyn-Schmiedeberg's Archives of Pharmacology (1987)335, 115-122). Briefly, brain striatum were isolated from male Wistar rats (about 200 g b.w.). The tissues were homogenaized in ice-cold 50 mM Tris buffer (pH7.4) with a polytron and centrifuged at 50,000 g for 15 min.. The pellets were homogenaized in the same Tris buffer and incubated for 5 min. at 37° C. The homogenates were centrifuged and synaptic membrane fractions were obtained. The membrane fractions were incubated with ^3 H-spiperone and various concentrations of the test compounds for 50 min. at 25° C. The reaction was terminated by filtration on a GF/B glass filter under vacuum. The radioactivity on the filter was measured using a liquid scintillation counter. The test compounds' dissociation constants (Ki) were determined according to the following equation.
IC50 : the test compound concentration needed to inhibit 50% of ^3 H-spiperone binding calculated by pseudo-Hill plot.
L : ^3 H-spiperone concentration
Kd : ^3 H-spiperone dissociation constant calculated by Scatchard plot.
The pKi values was then expressed as the negative logarithum of Ki. This value represents an affinity of the test compound to dopamine D2 -receptors. Non-specific binding of ^3 H-spiperone was determined in the presence of 10^-5 M sulpiride. Protein concentration was determined by the method of Lowry.

α1-adrenoceptor = α1-adrenoceptor blocking action (noradrenaline concentration-response in isolated thoracic aorta); type: cell-based, rabbit (Japanese white, male); settings: for pA2 value: negative logarithm of KB (M), noradrenaline as agonist, rabbit thoracic aorta, 30 min exposure, 10^-6 M propranolol; for α1-adrenoceptor selectivity 10^(pA2-pKi): α1-adrenoceptors (pA2, rabbit aorta) compared to dopamine D2-receptors (pKi, rat striatum)
Experimental: α1 -adrenoceptor blocking action
Method: The thoracic aorta were isolated from male rabbits (Japanese white, about 2.5 kg b.w.) and helically cut. The preparations were suspended in Krebs-Henseleit solution maintained at 37° C. and aerated with a gas mixture of 95%O2 +5%CO2. Responses to drugs were recorded isometrically under a tension of 2 g. After an equilibration period of about 60 min., cumulative concentration-response curves for noradrenaline were constructed. The preparations were exposed to the test compounds for 30 min. before rechallenge with noradrenaline. The dose ratio was obtained from the ratio of an ED50 value (the concentration needs to produce the half maximum response) of noradrenaline in the presence and absence of the test compound. The test compounds dissociation constants (KB) were determined according to the following equation.
KB =[concentration of the test compound (M)/(dose ratio-1)]
The pA2 values were then expressed as the negative logarithm of KB.
This value represents the blocking activity of a test compound to α1 -adrenoceptors. In these experimental periods, 10^-6 M propranolol was treated to block β-adrenoceptors. The results shown in Table 1-a indicate that the α1 -adrenoceptor blocking activites of the test compounds are almost the as same as that of YM-12617.
The selectivity of the test compound to α1 -adrenoceptors compared to dopamine D2 -receptors is determined according to the following equation.
α1 -adrenoceptor selectivity =10^(pA 2^-pK i^)

[1] = 3H-spiperone, rat striatum synaptic membranes, 50 min at 25° C., non-specific binding with 10^-5 M sulpiride, read-out: pKi value (converted)

T1 sequence (P61169 whole entry): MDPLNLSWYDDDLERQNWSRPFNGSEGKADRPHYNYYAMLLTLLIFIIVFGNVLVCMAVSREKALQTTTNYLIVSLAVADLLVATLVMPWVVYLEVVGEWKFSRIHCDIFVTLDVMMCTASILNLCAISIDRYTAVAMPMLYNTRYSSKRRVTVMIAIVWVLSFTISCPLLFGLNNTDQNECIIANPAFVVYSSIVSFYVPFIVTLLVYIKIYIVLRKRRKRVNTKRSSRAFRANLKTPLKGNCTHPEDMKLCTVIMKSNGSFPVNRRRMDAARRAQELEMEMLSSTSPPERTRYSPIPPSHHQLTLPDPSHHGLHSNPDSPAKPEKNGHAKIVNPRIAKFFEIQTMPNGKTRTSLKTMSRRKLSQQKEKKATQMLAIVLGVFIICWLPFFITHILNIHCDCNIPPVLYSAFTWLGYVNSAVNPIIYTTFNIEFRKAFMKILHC

| Compound | Ki (dopamine D2-receptor; [1]) [nM] | pA2 value (α1-adrenoceptor) | α1-adrenoceptor selectivity 10^(pA2-pKi) (α1-adrenoceptor) | Ki (dopamine D2-receptor) [nM] |
| --- | --- | --- | --- | --- |
| CCOc1ccccc1OCCNC(C)Cc1ccc(OC)c(S(N)(=O)=O)c1 (racemic) [YM-12617, 5-[2-[[2-(2-ethoxyphenoxy)ethyl]amino]propyl]-2-methoxybenzene-sulfonamidehydrochloride, reference compound] | 20.9 | 9.38 | 50 |  |
| COc1ccc(F)cc1OCCNC(C)Cc1ccc(OC)c(S(N)(=O)=O)c1 (stereo not drawn) [Example 1, 5-[2-[2-(5-Fluoro-2-methoxyphenoxy)ehtylamino]propyl]-2-methoxybenzenesulfonamide hydrochloride] | 120 | 9.45 | 339 |  |
| CCOc1ccc(CC(C)NCCOc2cc(F)ccc2OC)cc1S(N)(=O)=O (stereo not drawn) [Example 2, 2-Ethoxy-5-[2-[2-(5-fluoro-2-methoxyphenoxy)ethylamino]propyl] benzenesulfonamide hydrochloride] | 166 | 9.05 | 186 |  |
| CCOc1ccc(F)cc1OCCNC(C)Cc1ccc(OCC)c(S(N)(=O)=O)c1 (stereo not drawn) [Example 5, 2-Ethoxy-5-[2-[2-(2-ethoxy-5-fluorophenoxy)ethylamino]propyl] benzenesulfonamide hydrochloride] |  | 8.98 | 79 | 83.2 |
| CNS(=O)(=O)c1cc(CC(C)NCCOc2cc(F)ccc2OC)ccc1OC.O=C(O)C(=O)O (stereo not drawn) [Example 9, 5-[2-[2-(5-Fluoro-2-methoxyphenoxy)ethylamino]propyl]-2-methoxy-N-methylbenzenesulfonamide oxalate] |  | 9.34 |  | 93.3 |
| COc1ccc(F)cc1OCCNC(C)Cc1ccc(OC)c(S(=O)(=O)N(C)C)c1 (stereo not drawn) [Example 10, 5-[2-[2-(5-Fluoro-2-methoxyphenoxy)ethylamino]propy]-2-methoxy-N,N-dimethylbenzenesulfonamide oxalate] | 110 | 9.42 | 288 |  |
| COc1ccc(F)cc1OCCNC(C)Cc1ccc(OC)c(S(=O)(=O)N2CCCC2)c1.O=C(O)C(=O)O (stereo not drawn) [Example 11, 1-[[5-[2-[2-(5-Fluoro-2-methoxyphenoxy)ethylamino]propyl]-2methoxyphenyl]sulfonyl]pyrrolidine oxalate] |  | 9.33 |  | 64.6 |
| COc1ccc(F)cc1OCCNC(C)Cc1ccc(OC)c(S(=O)(=O)N2CCCCC2)c1 (stereo not drawn) [Example 12, 1-[[5-[2-[2-(5-Fluoro-2-methoxyphenoxy)ethylamino]propyl]-2-methoxyphenyl]sulfonyl]-methoxyphenyl]sulfonyl]piperidine oxalate] |  | 9.10 |  | 89.1 |
| CCOc1ccc(F)cc1OCCNC(C)Cc1ccc(OC)c(S(N)(=O)=O)c1.Cl (stereo not drawn) [Example 14, 5-[2-[2-(2-Ethoxy-5-fluorophenoxy)ethylamino]propyl]-2-methoxybenzenesulfonamide hydrochloride] |  | 9.69 | 115 | 23.4 |
| CCOc1ccc(F)cc1OCCNC(C)Cc1ccc(OC)c(S(=O)(=O)N(C)C)c1.O=C(O)C(=O)O (stereo not drawn) [Example 15, 5-[2-[2-(2-Ethoxy-5-fluorophenoxy)ethylamino]propyl]-2-methoxy-N,N-dimethylbenzenesulfonamide oxalate] |  | 9.48 | 78 | 25.7 |
| CCCNS(=O)(=O)c1cc(CC(C)NCCOc2cc(F)ccc2OC)ccc1OC (stereo not drawn) [Example 20, 5-[2[2-(5-Fluoro-2-methoxyphenoxy)ethylamino]propyl]-2-methoxy-N-propylbenzenesulfonamide 1/2fumarate] | 129 | 9.10 |  |  |
| CCNS(=O)(=O)c1cc(CC(C)NCCOc2cc(F)ccc2OC)ccc1OC (stereo not drawn) [Example 21, N-Ethyl-5-[2-(5-fluoro-2-methoxyphenoxy)ethylamino]propyl]-2-methoxy-benzenesulfonamide oxalate] |  | 9.14 |  | 93.3 |
| CCCCNS(=O)(=O)c1cc(CC(C)NCCOc2cc(F)ccc2OC)ccc1OC.O=C(O)C(=O)O (stereo not drawn) [Example 22, N-Butyl-5-[2-[2-(5-fluoro-2-methoxyphenoxy)ethylamino]propyl]-2-methoxybenzenesulfonamide oxalate] |  | 9.08 |  | 77.6 |
| COc1ccc(F)cc1OCCN[C@H](C)Cc1ccc(OC)c(S(N)(=O)=O)c1.Cl [Example 34, R-(-)-5-[2-[2-(5-Fluoro-2-methoxyphenoxy)-ethylamino]propyl]-2-methoxybenzenesulfonamide hydrochloride] |  | 9.77 | 437 | 74.1 |
